Data from US20240108602A1, “TREATMENT OF MENTAL DISORDERS” (GH Research Ireland Limited, priority 2022, published 2024).

Tested on: patients with postpartum depression (PPD)
Test: Clinical trial of inhaled 5-MeO-DMT (IDR) in patients with postpartum depression
Method: The single-arm, open-label clinical trial will involve 15 adult female patients with clinically diagnosed postpartum depression (PPD).
The second dose (12 mg) will only be administered if: • a. A peak experience (total score of ≥75) has not been achieved following the 6 mg dose, and • b. The 6 mg dose was safe and well-tolerated according to the investigator, • c. Any psychoactive effects (PsE) of the prior dose have subsided, and • d. Pre-dose vital parameters and forced expiratory volume in one second (FEV1) are in normal range, or if outside of the normal range, are not clinically significant according to the investigator. • 3. Similarly, a third dose (18 mg) will only be administered if: • a. A peak experience (total score of ≥75) has not been achieved following the 12 mg dose, and • b. The 12 mg dose was safe and well-tolerated according to the investigator, and • c. Any PsE of the prior dose have subsided, and • d. Pre-dose vital parameters and forced expiratory volume in one second (FEV1) are in normal range, or if outside of the normal range, are not clinically significant according to the investigator.
The patients will be assessed for a peak psychedelic experience (based on a patient-scored visual analogue scale, the PE scale), sedation, and other endpoints after dosing.
Follow-up visits are planned for Day 1, and Day 7 after the dosing day.
The following criteria must be met by all patients considered for clinical trial participation: • 1. Is female and in the age range between 18 and 45 years (inclusive) at screening. • 2. Has a body mass index (BMI) in the range of 18.5 and 35 kg/m^2 (inclusive) at screening. • 3. Meets the trial criteria for PPD as assessed by a trial psychiatrist or registered psychologist: • a. Diagnosis of Major Depressive Disorder without psychotic features, confirmed by the Mini-International Neuropsychiatric Interview (MINI), with peri-partum onset that began no earlier than gestation and no later than the first 4 weeks postpartum. • b. Has a Montgomery-Åsberg Depression Rating Scale (MADRS) total score of equal to or greater than 28 at screening and pre-dose on Day 0. • 6. […] Patients must have a negative pregnancy test at screening and on the pre-test day (Day−1). • 5. Is willing to delay start of other antidepressant or anxiety medication until after the end of the trial at Day 7 and agrees to keep any psychotherapy unchanged during the trial.

COc1ccc2[nH]cc(CCN(C)C)c2c1 [5-MeO-DMT]
BIMF item 12 (taking good care of my baby's physical needs) score (PPD patient 1, Day 7): 6
BIMF item 12 Δ vs Day 0 (PPD patient 1, Day 7): 0
BIMF item 13 (taking good care of my physical needs) score (PPD patient 1, Day 7): 5
BIMF item 13 Δ vs Day 0 (PPD patient 1, Day 7): 1
BIMF item 14 (good decisions about my baby's health and well being) score (PPD patient 1, Day 7): 6
BIMF item 14 Δ vs Day 0 (PPD patient 1, Day 7): 0
BIMF item 15 (My baby and I are getting into a routine) score (PPD patient 1, Day 7): 6
BIMF item 15 Δ vs Day 0 (PPD patient 1, Day 7): 1
BIMF item 16 (I worry about how other people judge me) score (PPD patient 1, Day 7): 5
BIMF item 16 Δ vs Day 0 (PPD patient 1, Day 7): 2
BIMF item 17 (able to take care of my baby and my other responsibilities) score (PPD patient 1, Day 7): 5
BIMF item 17 Δ vs Day 0 (PPD patient 1, Day 7): 0
BIMF item 18 (Anxiety or worry often interferes with my mothering ability) score (PPD patient 1, Day 7): 5
BIMF item 18 Δ vs Day 0 (PPD patient 1, Day 7): 3
BIMF item 19 (getting better at taking care of my baby) score (PPD patient 1, Day 7): 1
BIMF item 19 Δ vs Day 0 (PPD patient 1, Day 7): 1
BIMF item 20 (satisfied with the job I am doing as a new mother) score (PPD patient 1, Day 7): 5
BIMF item 20 Δ vs Day 0 (PPD patient 1, Day 7): −1
BPRS Anxiety improvement (PPD patient 1, Day 7): 6
BPRS Anxiety score (PPD patient 1, Day 7): 1
BPRS Blunted affect improvement (PPD patient 1, Day 7): 0
BPRS Blunted affect score (PPD patient 1, Day 7): 1
BPRS Conceptual disorganization improvement (PPD patient 1, Day 7): 0
BPRS Conceptual disorganization score (PPD patient 1, Day 7): 1
BPRS Depressive Mood improvement (PPD patient 1, Day 7): 5
BPRS Depressive Mood score (PPD patient 1, Day 7): 1
BPRS Disorientation improvement (PPD patient 1, Day 7): 0
BPRS Disorientation score (PPD patient 1, Day 7): 1
BPRS Emotional withdrawal improvement (PPD patient 1, Day 7): 4
BPRS Emotional withdrawal score (PPD patient 1, Day 7): 1
BPRS Excitement improvement (PPD patient 1, Day 7): 1
BPRS Excitement score (PPD patient 1, Day 7): 1
BPRS Grandiosity improvement (PPD patient 1, Day 7): 0
BPRS Grandiosity score (PPD patient 1, Day 7): 1
BPRS Guilt feelings improvement (PPD patient 1, Day 7): 5
BPRS Guilt feelings score (PPD patient 1, Day 7): 1
BPRS Hallucinatory behaviour improvement (PPD patient 1, Day 7): 0
BPRS Hallucinatory behaviour score (PPD patient 1, Day 7): 1
BPRS Hostility improvement (PPD patient 1, Day 7): 0
BPRS Hostility score (PPD patient 1, Day 7): 1
BPRS Mannerisms and Posturing improvement (PPD patient 1, Day 7): 0
BPRS Mannerisms and Posturing score (PPD patient 1, Day 7): 1
BPRS Motor retardation improvement (PPD patient 1, Day 7): 0
BPRS Motor retardation score (PPD patient 1, Day 7): 1
BPRS Somatic Concern improvement (PPD patient 1, Day 7): 5
BPRS Somatic Concern score (PPD patient 1, Day 7): 1
BPRS Suspiciousness improvement (PPD patient 1, Day 7): 0
BPRS Suspiciousness score (PPD patient 1, Day 7): 1
BPRS Tension improvement (PPD patient 1, Day 7): 5
BPRS Tension score (PPD patient 1, Day 7): 1
BPRS Uncooperativeness improvement (PPD patient 1, Day 7): 0
BPRS Uncooperativeness score (PPD patient 1, Day 7): 1
BPRS Unusual Thought Content improvement (PPD patient 1, Day 7): 0
BPRS Unusual Thought Content score (PPD patient 1, Day 7): 1
MADRS Apparent sadness improvement (PPD patient 1, Day 7): 5
MADRS Apparent sadness score (PPD patient 1, Day 7): 0
MADRS Concentration Difficulties improvement (PPD patient 1, Day 7): 0
MADRS Concentration Difficulties score (PPD patient 1, Day 7): 0
MADRS Inability to Feel improvement (PPD patient 1, Day 7): 3
MADRS Inability to Feel score (PPD patient 1, Day 7): 0
MADRS Inner Tension improvement (PPD patient 1, Day 7): 4
MADRS Inner Tension score (PPD patient 1, Day 7): 1
MADRS Lassitude improvement (PPD patient 1, Day 7): 3
MADRS Lassitude score (PPD patient 1, Day 7): 0
MADRS Pessimistic Thoughts improvement (PPD patient 1, Day 7): 4
MADRS Pessimistic Thoughts score (PPD patient 1, Day 7): 0
MADRS Reduced Sleep improvement (PPD patient 1, Day 7): 5
MADRS Reduced Sleep score (PPD patient 1, Day 7): 0
MADRS Reduced appetite improvement (PPD patient 1, Day 7): 0
MADRS Reduced appetite score (PPD patient 1, Day 7): 0
MADRS Reported sadness improvement (PPD patient 1, Day 7): 4
MADRS Reported sadness score (PPD patient 1, Day 7): 0
MADRS Suicidal Thoughts improvement (PPD patient 1, Day 7): 0
MADRS Suicidal Thoughts score (PPD patient 1, Day 7): 0
Total MADRS improvement (PPD patient 1, Day 7): 28
Total MADRS score (PPD patient 1, Day 7): 1
BIMF total score improvement (PPD patient 1, Day 7, from 92 to 105): 14%
BPRS Anxiety improvement (PPD patient 1, Discharge): 6
BPRS Anxiety score (PPD patient 1, Discharge): 1
BPRS Blunted affect improvement (PPD patient 1, Discharge): 0
BPRS Blunted affect score (PPD patient 1, Discharge): 1
BPRS Conceptual disorganization improvement (PPD patient 1, Discharge): 0
BPRS Conceptual disorganization score (PPD patient 1, Discharge): 1
BPRS Depressive Mood improvement (PPD patient 1, Discharge): 5
BPRS Depressive Mood score (PPD patient 1, Discharge): 1
BPRS Disorientation improvement (PPD patient 1, Discharge): 0
BPRS Disorientation score (PPD patient 1, Discharge): 1
BPRS Emotional withdrawal improvement (PPD patient 1, Discharge): 4
BPRS Emotional withdrawal score (PPD patient 1, Discharge): 1
BPRS Excitement improvement (PPD patient 1, Discharge): 1
BPRS Excitement score (PPD patient 1, Discharge): 1
BPRS Grandiosity improvement (PPD patient 1, Discharge): 0
BPRS Grandiosity score (PPD patient 1, Discharge): 1
BPRS Guilt feelings improvement (PPD patient 1, Discharge): 5
BPRS Guilt feelings score (PPD patient 1, Discharge): 1
BPRS Hallucinatory behaviour improvement (PPD patient 1, Discharge): 0
BPRS Hallucinatory behaviour score (PPD patient 1, Discharge): 1
BPRS Hostility improvement (PPD patient 1, Discharge): 0
BPRS Hostility score (PPD patient 1, Discharge): 1
BPRS Mannerisms and Posturing improvement (PPD patient 1, Discharge): 0
BPRS Mannerisms and Posturing score (PPD patient 1, Discharge): 1
BPRS Motor retardation improvement (PPD patient 1, Discharge): 0
BPRS Motor retardation score (PPD patient 1, Discharge): 1
BPRS Somatic Concern improvement (PPD patient 1, Discharge): 5
BPRS Somatic Concern score (PPD patient 1, Discharge): 1
BPRS Suspiciousness improvement (PPD patient 1, Discharge): 0
BPRS Suspiciousness score (PPD patient 1, Discharge): 1
BPRS Tension improvement (PPD patient 1, Discharge): 5
BPRS Tension score (PPD patient 1, Discharge): 1
BPRS Uncooperativeness improvement (PPD patient 1, Discharge): 0
BPRS Uncooperativeness score (PPD patient 1, Discharge): 1
BPRS Unusual Thought Content improvement (PPD patient 1, Discharge): 0
BPRS Unusual Thought Content score (PPD patient 1, Discharge): 1
time to clinical remission after administration (PPD patient 1, IDR 6 mg then 12 mg): ≤ 2 h
PES score (intensity of psychedelic experience) (PPD patient 1, nominal dose 6 mg): 17.3
changes in vital parameters (PPD patient 1, shortly after administration): temporary, clinically non-relevant increase in heart rate and blood pressure
PES score (intensity of psychedelic experience) (PPD patient 1, subsequent dose 12 mg): 85.7
ECG, safety laboratory analyses, CADSS (PPD patient 2): unremarkable
MADRS response (at least 50% improvement) and MADRS remission (total score 10 or less) (PPD patient 2): fulfilled standard criteria
reported adverse events (mild, resolved spontaneously) (PPD patient 2): vomiting on Day 0 and headache on Day 5
PES score (intensity of psychedelic experience) (PPD patient 2, nominal dose 6 mg): 1
changes in vital parameters (PPD patient 2, shortly after administration): temporary, clinically non-relevant increase in heart rate
PES score (intensity of psychedelic experience) (PPD patient 2, subsequent dose 12 mg): 94.7
